# Data reported in patent US20090253709A1 (NATIONAL DEFENSE MEDICAL CENTER, priority 2008, published 2009).
# System: A498
# Assay: In vitro cytotoxicity, Development Therapeutics Program
# Type: cell-based
# Details: A498, renal cancer; 1.0×10^−5 M
# Text: (§1) From the in vitro experiments of the Development Therapeutics Program of the Cancer Research Institute, the United States, it was known that the synthetic heterocyclic anthraquinone derivatives of the present invention have different inhibition levels to the different cancer cell lines under the concentration of 1.0×10^−5 M. Please refer to Table 2, which is the result of in vitro cytotoxicity of 2,7-disubstituted anthraquinone derivatives of the present invention.
row,SMILES,Cellular growth rate (%)
1,"O=C(CCN1CCCC1)Nc1ccc2c(c1)C(=O)c1cc(NC(=O)CCN3CCCC3)ccc1C2=O [Compound 18, 2,7-Bis[3-(pyrrolidino)propionamido]anthraquinone]",−0.91%

# System: BT-549
# Assay: as above
# Type: cell-based
# Details: BT-549, breast cancer; 1.0×10^−5 M
# Text: as §1
row,SMILES,Cellular growth rate (%)
1,"O=C(CCN1CCCC1)Nc1ccc2c(c1)C(=O)c1cc(NC(=O)CCN3CCCC3)ccc1C2=O [Compound 18, 2,7-Bis[3-(pyrrolidino)propionamido]anthraquinone]",76.91%

# System: CAK1-1
# Assay: as above
# Type: cell-based
# Details: CAK1-1, renal cancer; 1.0×10^−5 M
# Text: as §1
row,SMILES,Cellular growth rate (%)
1,"O=C(CCN1CCCC1)Nc1ccc2c(c1)C(=O)c1cc(NC(=O)CCN3CCCC3)ccc1C2=O [Compound 18, 2,7-Bis[3-(pyrrolidino)propionamido]anthraquinone]",55.55%

# System: DU-145
# Assay: as above
# Type: cell-based
# Details: DU-145, prostate cancer; 1.0×10^−5 M
# Text: as §1
row,SMILES,Cellular growth rate (%)
1,"O=C(CCN1CCCC1)Nc1ccc2c(c1)C(=O)c1cc(NC(=O)CCN3CCCC3)ccc1C2=O [Compound 18, 2,7-Bis[3-(pyrrolidino)propionamido]anthraquinone]",29.53%

# System: HCC-2998
# Assay: as above
# Type: cell-based
# Details: HCC-2998, colon cancer; 1.0×10^−5 M
# Text: as §1
row,SMILES,Cellular growth rate (%)
1,"O=C(CCN1CCCC1)Nc1ccc2c(c1)C(=O)c1cc(NC(=O)CCN3CCCC3)ccc1C2=O [Compound 18, 2,7-Bis[3-(pyrrolidino)propionamido]anthraquinone]",19.99%

# System: HCT-116
# Assay: as above
# Type: cell-based
# Details: HCT-116, colon cancer; 1.0×10^−5 M
# Text: as §1
row,SMILES,Cellular growth rate (%)
1,"O=C(CCN1CCCC1)Nc1ccc2c(c1)C(=O)c1cc(NC(=O)CCN3CCCC3)ccc1C2=O [Compound 18, 2,7-Bis[3-(pyrrolidino)propionamido]anthraquinone]",10.51%

# System: HCT-15
# Assay: as above
# Type: cell-based
# Details: HCT-15, colon cancer; 1.0×10^−5 M
# Text: as §1
row,SMILES,Cellular growth rate (%)
1,"O=C(CCN1CCCC1)Nc1ccc2c(c1)C(=O)c1cc(NC(=O)CCN3CCCC3)ccc1C2=O [Compound 18, 2,7-Bis[3-(pyrrolidino)propionamido]anthraquinone]",56.14%

# System: HL-60(TB)
# Assay: as above
# Type: cell-based
# Details: leukemia, 1.0×10^−5 M
# Text: as §1
row,SMILES,Cellular growth rate (%)
1,"O=C(CCN1CCCC1)Nc1ccc2c(c1)C(=O)c1cc(NC(=O)CCN3CCCC3)ccc1C2=O [Compound 18, 2,7-Bis[3-(pyrrolidino)propionamido]anthraquinone]",85.84%

# System: HOP-62
# Assay: as above
# Type: cell-based
# Details: HOP-62, non-small cell lung cancer; 1.0×10^−5 M
# Text: as §1
row,SMILES,Cellular growth rate (%)
1,"O=C(CCN1CCCC1)Nc1ccc2c(c1)C(=O)c1cc(NC(=O)CCN3CCCC3)ccc1C2=O [Compound 18, 2,7-Bis[3-(pyrrolidino)propionamido]anthraquinone]",18.79%

# System: HOP-92
# Assay: as above
# Type: cell-based
# Details: HOP-92, non-small cell lung cancer; 1.0×10^−5 M
# Text: as §1
row,SMILES,Cellular growth rate (%)
1,"O=C(CCN1CCCC1)Nc1ccc2c(c1)C(=O)c1cc(NC(=O)CCN3CCCC3)ccc1C2=O [Compound 18, 2,7-Bis[3-(pyrrolidino)propionamido]anthraquinone]",7.04%

# System: HS 578T
# Assay: as above
# Type: cell-based
# Details: breast cancer, 1.0×10^−5 M
# Text: as §1
row,SMILES,Cellular growth rate (%)
1,"O=C(CCN1CCCC1)Nc1ccc2c(c1)C(=O)c1cc(NC(=O)CCN3CCCC3)ccc1C2=O [Compound 18, 2,7-Bis[3-(pyrrolidino)propionamido]anthraquinone]",5.26%

# System: HT29
# Assay: as above
# Type: cell-based
# Details: HT29, colon cancer; 1.0×10^−5 M
# Text: as §1
row,SMILES,Cellular growth rate (%)
1,"O=C(CCN1CCCC1)Nc1ccc2c(c1)C(=O)c1cc(NC(=O)CCN3CCCC3)ccc1C2=O [Compound 18, 2,7-Bis[3-(pyrrolidino)propionamido]anthraquinone]",19.47%

# System: K-562
# Assay: as above
# Type: cell-based
# Details: K-562, leukemia; 1.0×10^−5 M
# Text: as §1
row,SMILES,Cellular growth rate (%)
1,"O=C(CCN1CCCC1)Nc1ccc2c(c1)C(=O)c1cc(NC(=O)CCN3CCCC3)ccc1C2=O [Compound 18, 2,7-Bis[3-(pyrrolidino)propionamido]anthraquinone]",6.40%

# System: KM12
# Assay: as above
# Type: cell-based
# Details: KM12, colon cancer; 1.0×10^−5 M
# Text: as §1
row,SMILES,Cellular growth rate (%)
1,"O=C(CCN1CCCC1)Nc1ccc2c(c1)C(=O)c1cc(NC(=O)CCN3CCCC3)ccc1C2=O [Compound 18, 2,7-Bis[3-(pyrrolidino)propionamido]anthraquinone]",32.55%

# System: M14
# Assay: as above
# Type: cell-based
# Details: M14, melanoma; 1.0×10^−5 M
# Text: as §1
row,SMILES,Cellular growth rate (%)
1,"O=C(CCN1CCCC1)Nc1ccc2c(c1)C(=O)c1cc(NC(=O)CCN3CCCC3)ccc1C2=O [Compound 18, 2,7-Bis[3-(pyrrolidino)propionamido]anthraquinone]",53.88%

# System: MALME-3M
# Assay: as above
# Type: cell-based
# Details: melanoma, 1.0×10^−5 M
# Text: as §1
row,SMILES,Cellular growth rate (%)
1,"O=C(CCN1CCCC1)Nc1ccc2c(c1)C(=O)c1cc(NC(=O)CCN3CCCC3)ccc1C2=O [Compound 18, 2,7-Bis[3-(pyrrolidino)propionamido]anthraquinone]",47.00%

# System: MDA-MB-231/ATCC
# Assay: as above
# Type: cell-based
# Details: breast cancer, 1.0×10^−5 M
# Text: as §1
row,SMILES,Cellular growth rate (%)
1,"O=C(CCN1CCCC1)Nc1ccc2c(c1)C(=O)c1cc(NC(=O)CCN3CCCC3)ccc1C2=O [Compound 18, 2,7-Bis[3-(pyrrolidino)propionamido]anthraquinone]",30.47%

# System: MDA-MB-435
# Assay: as above
# Type: cell-based
# Details: MDA-MB-435, breast cancer; 1.0×10^−5 M
# Text: as §1
row,SMILES,Cellular growth rate (%)
1,"O=C(CCN1CCCC1)Nc1ccc2c(c1)C(=O)c1cc(NC(=O)CCN3CCCC3)ccc1C2=O [Compound 18, 2,7-Bis[3-(pyrrolidino)propionamido]anthraquinone]",68.84%

# System: MOLT-4
# Assay: as above
# Type: cell-based
# Details: MOLT-4, leukemia; 1.0×10^−5 M
# Text: as §1
row,SMILES,Cellular growth rate (%)
1,"O=C(CCN1CCCC1)Nc1ccc2c(c1)C(=O)c1cc(NC(=O)CCN3CCCC3)ccc1C2=O [Compound 18, 2,7-Bis[3-(pyrrolidino)propionamido]anthraquinone]",22.97%

# System: NCI-H23
# Assay: as above
# Type: cell-based
# Details: NCI-H23, non-small cell lung cancer; 1.0×10^−5 M
# Text: as §1
row,SMILES,Cellular growth rate (%)
1,"O=C(CCN1CCCC1)Nc1ccc2c(c1)C(=O)c1cc(NC(=O)CCN3CCCC3)ccc1C2=O [Compound 18, 2,7-Bis[3-(pyrrolidino)propionamido]anthraquinone]",31.49%

# System: NCl-H460
# Assay: as above
# Type: cell-based
# Details: NCl-H460, non-small cell lung cancer; 1.0×10^−5 M
# Text: as §1
row,SMILES,Cellular growth rate (%)
1,"O=C(CCN1CCCC1)Nc1ccc2c(c1)C(=O)c1cc(NC(=O)CCN3CCCC3)ccc1C2=O [Compound 18, 2,7-Bis[3-(pyrrolidino)propionamido]anthraquinone]",25.52%

# System: NCl-H522
# Assay: as above
# Type: cell-based
# Details: NCl-H522, non-small cell lung cancer; 1.0×10^−5 M
# Text: as §1
row,SMILES,Cellular growth rate (%)
1,"O=C(CCN1CCCC1)Nc1ccc2c(c1)C(=O)c1cc(NC(=O)CCN3CCCC3)ccc1C2=O [Compound 18, 2,7-Bis[3-(pyrrolidino)propionamido]anthraquinone]",29.16%

# System: OVCAR-8
# Assay: as above
# Type: cell-based
# Details: OVCAR-8, ovarian cancer; 1.0×10^−5 M
# Text: as §1
row,SMILES,Cellular growth rate (%)
1,"O=C(CCN1CCCC1)Nc1ccc2c(c1)C(=O)c1cc(NC(=O)CCN3CCCC3)ccc1C2=O [Compound 18, 2,7-Bis[3-(pyrrolidino)propionamido]anthraquinone]",19.58%

# System: RPMI-8226
# Assay: as above
# Type: cell-based
# Details: RPMI-8226, leukemia; 1.0×10^−5 M
# Text: as §1
row,SMILES,Cellular growth rate (%)
1,"O=C(CCN1CCCC1)Nc1ccc2c(c1)C(=O)c1cc(NC(=O)CCN3CCCC3)ccc1C2=O [Compound 18, 2,7-Bis[3-(pyrrolidino)propionamido]anthraquinone]",47.90%

# System: SF-539
# Assay: as above
# Type: cell-based
# Details: SF-539, CNS cancer; 1.0×10^−5 M
# Text: as §1
row,SMILES,Cellular growth rate (%)
1,"O=C(CCN1CCCC1)Nc1ccc2c(c1)C(=O)c1cc(NC(=O)CCN3CCCC3)ccc1C2=O [Compound 18, 2,7-Bis[3-(pyrrolidino)propionamido]anthraquinone]",33.75%

# System: SK-MEL-28
# Assay: as above
# Type: cell-based
# Details: SK-MEL-28, melanoma; 1.0×10^−5 M
# Text: as §1
row,SMILES,Cellular growth rate (%)
1,"O=C(CCN1CCCC1)Nc1ccc2c(c1)C(=O)c1cc(NC(=O)CCN3CCCC3)ccc1C2=O [Compound 18, 2,7-Bis[3-(pyrrolidino)propionamido]anthraquinone]",14.99%

# System: SK-MEL-2
# Assay: as above
# Type: cell-based
# Details: SK-MEL-2, melanoma; 1.0×10^−5 M
# Text: as §1
row,SMILES,Cellular growth rate (%)
1,"O=C(CCN1CCCC1)Nc1ccc2c(c1)C(=O)c1cc(NC(=O)CCN3CCCC3)ccc1C2=O [Compound 18, 2,7-Bis[3-(pyrrolidino)propionamido]anthraquinone]",−45.21%

# System: SK-MEL-5
# Assay: as above
# Type: cell-based
# Details: SK-MEL-5, melanoma; 1.0×10^−5 M
# Text: as §1
row,SMILES,Cellular growth rate (%)
1,"O=C(CCN1CCCC1)Nc1ccc2c(c1)C(=O)c1cc(NC(=O)CCN3CCCC3)ccc1C2=O [Compound 18, 2,7-Bis[3-(pyrrolidino)propionamido]anthraquinone]",56.94%

# System: SK-OV-3
# Assay: as above
# Type: cell-based
# Details: SK-OV-3, ovarian cancer; 1.0×10^−5 M
# Text: as §1
row,SMILES,Cellular growth rate (%)
1,"O=C(CCN1CCCC1)Nc1ccc2c(c1)C(=O)c1cc(NC(=O)CCN3CCCC3)ccc1C2=O [Compound 18, 2,7-Bis[3-(pyrrolidino)propionamido]anthraquinone]",27.14%

# System: SN12C
# Assay: as above
# Type: cell-based
# Details: renal cancer, 1.0×10^−5 M
# Text: as §1
row,SMILES,Cellular growth rate (%)
1,"O=C(CCN1CCCC1)Nc1ccc2c(c1)C(=O)c1cc(NC(=O)CCN3CCCC3)ccc1C2=O [Compound 18, 2,7-Bis[3-(pyrrolidino)propionamido]anthraquinone]",6.68%

# System: SNB-19
# Assay: as above
# Type: cell-based
# Details: SNB-19, CNS cancer; 1.0×10^−5 M
# Text: as §1
row,SMILES,Cellular growth rate (%)
1,"O=C(CCN1CCCC1)Nc1ccc2c(c1)C(=O)c1cc(NC(=O)CCN3CCCC3)ccc1C2=O [Compound 18, 2,7-Bis[3-(pyrrolidino)propionamido]anthraquinone]",66.97%

# System: SNB-75
# Assay: as above
# Type: cell-based
# Details: SNB-75, CNS cancer; 1.0×10^−5 M
# Text: as §1
row,SMILES,Cellular growth rate (%)
1,"O=C(CCN1CCCC1)Nc1ccc2c(c1)C(=O)c1cc(NC(=O)CCN3CCCC3)ccc1C2=O [Compound 18, 2,7-Bis[3-(pyrrolidino)propionamido]anthraquinone]",77.47%

# System: T-47D
# Assay: as above
# Type: cell-based
# Details: breast cancer, 1.0×10^−5 M
# Text: as §1
row,SMILES,Cellular growth rate (%)
1,"O=C(CCN1CCCC1)Nc1ccc2c(c1)C(=O)c1cc(NC(=O)CCN3CCCC3)ccc1C2=O [Compound 18, 2,7-Bis[3-(pyrrolidino)propionamido]anthraquinone]",58.98%

# System: U251
# Assay: as above
# Type: cell-based
# Details: U251, CNS cancer; 1.0×10^−5 M
# Text: as §1
row,SMILES,Cellular growth rate (%)
1,"O=C(CCN1CCCC1)Nc1ccc2c(c1)C(=O)c1cc(NC(=O)CCN3CCCC3)ccc1C2=O [Compound 18, 2,7-Bis[3-(pyrrolidino)propionamido]anthraquinone]",18.16%

# System: UACC-257
# Assay: as above
# Type: cell-based
# Details: UACC-257, melanoma; 1.0×10^−5 M
# Text: as §1
row,SMILES,Cellular growth rate (%)
1,"O=C(CCN1CCCC1)Nc1ccc2c(c1)C(=O)c1cc(NC(=O)CCN3CCCC3)ccc1C2=O [Compound 18, 2,7-Bis[3-(pyrrolidino)propionamido]anthraquinone]",−17.88%

# System: UACC-62
# Assay: as above
# Type: cell-based
# Details: UACC-62, melanoma; 1.0×10^−5 M
# Text: as §1
row,SMILES,Cellular growth rate (%)
1,"O=C(CCN1CCCC1)Nc1ccc2c(c1)C(=O)c1cc(NC(=O)CCN3CCCC3)ccc1C2=O [Compound 18, 2,7-Bis[3-(pyrrolidino)propionamido]anthraquinone]",42.72%
